Data published in ChEMBL document CHEMBL3991601, “The target landscape of clinical kinase drugs” (Science, 2017).
Active and inactive are the calls of the source. Rule as the data show it, for most assays here: actives have a measured Kd and inactives only a lower limit.

Columns and labels:
[1] = target: Inosine-5'-monophosphate dehydrogenase 2 (Homo sapiens, UniProt P12268)
[2] = target: T1, Breakpoint cluster region protein (Homo sapiens, UniProt P11274)
T1 sequence (P11274 whole entry): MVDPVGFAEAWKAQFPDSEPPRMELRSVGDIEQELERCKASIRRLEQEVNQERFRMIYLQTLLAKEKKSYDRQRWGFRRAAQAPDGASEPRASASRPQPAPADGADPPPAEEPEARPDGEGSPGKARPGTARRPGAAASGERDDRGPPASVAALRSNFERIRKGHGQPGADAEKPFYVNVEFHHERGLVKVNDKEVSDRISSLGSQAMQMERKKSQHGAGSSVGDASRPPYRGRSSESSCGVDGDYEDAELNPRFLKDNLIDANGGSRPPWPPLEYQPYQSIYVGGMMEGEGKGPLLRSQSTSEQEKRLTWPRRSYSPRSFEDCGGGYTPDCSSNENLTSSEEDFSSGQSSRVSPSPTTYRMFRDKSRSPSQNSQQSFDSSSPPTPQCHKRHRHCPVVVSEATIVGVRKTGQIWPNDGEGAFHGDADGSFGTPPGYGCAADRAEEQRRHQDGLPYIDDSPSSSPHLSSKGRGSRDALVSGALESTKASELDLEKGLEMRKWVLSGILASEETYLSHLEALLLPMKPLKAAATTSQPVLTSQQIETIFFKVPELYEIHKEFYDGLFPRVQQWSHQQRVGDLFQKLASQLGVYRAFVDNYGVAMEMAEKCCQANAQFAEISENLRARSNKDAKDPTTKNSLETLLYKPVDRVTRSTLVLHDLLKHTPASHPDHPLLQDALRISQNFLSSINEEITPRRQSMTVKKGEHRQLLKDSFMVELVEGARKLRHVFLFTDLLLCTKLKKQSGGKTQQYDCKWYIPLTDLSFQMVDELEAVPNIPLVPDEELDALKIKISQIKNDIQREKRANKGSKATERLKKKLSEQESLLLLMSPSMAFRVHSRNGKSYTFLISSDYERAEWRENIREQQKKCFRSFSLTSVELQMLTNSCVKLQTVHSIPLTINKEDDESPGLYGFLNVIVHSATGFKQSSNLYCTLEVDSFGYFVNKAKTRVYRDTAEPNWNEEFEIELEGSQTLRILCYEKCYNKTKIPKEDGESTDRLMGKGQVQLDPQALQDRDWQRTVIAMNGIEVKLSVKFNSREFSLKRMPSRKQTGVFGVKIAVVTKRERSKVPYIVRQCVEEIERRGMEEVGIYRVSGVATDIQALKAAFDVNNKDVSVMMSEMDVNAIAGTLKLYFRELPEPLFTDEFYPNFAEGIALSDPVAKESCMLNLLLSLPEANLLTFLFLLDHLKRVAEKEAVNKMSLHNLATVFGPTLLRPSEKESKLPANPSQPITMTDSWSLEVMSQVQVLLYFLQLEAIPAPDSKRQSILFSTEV

[3] = target: Mitogen-activated protein kinase 8 (Homo sapiens, UniProt P45983)
[4] = target: Cyclin-dependent kinase 12 (Homo sapiens, UniProt Q9NYV4)
Chain of Cyclin-dependent kinase 12 (Q9NYV4 whole entry, canonical isoform): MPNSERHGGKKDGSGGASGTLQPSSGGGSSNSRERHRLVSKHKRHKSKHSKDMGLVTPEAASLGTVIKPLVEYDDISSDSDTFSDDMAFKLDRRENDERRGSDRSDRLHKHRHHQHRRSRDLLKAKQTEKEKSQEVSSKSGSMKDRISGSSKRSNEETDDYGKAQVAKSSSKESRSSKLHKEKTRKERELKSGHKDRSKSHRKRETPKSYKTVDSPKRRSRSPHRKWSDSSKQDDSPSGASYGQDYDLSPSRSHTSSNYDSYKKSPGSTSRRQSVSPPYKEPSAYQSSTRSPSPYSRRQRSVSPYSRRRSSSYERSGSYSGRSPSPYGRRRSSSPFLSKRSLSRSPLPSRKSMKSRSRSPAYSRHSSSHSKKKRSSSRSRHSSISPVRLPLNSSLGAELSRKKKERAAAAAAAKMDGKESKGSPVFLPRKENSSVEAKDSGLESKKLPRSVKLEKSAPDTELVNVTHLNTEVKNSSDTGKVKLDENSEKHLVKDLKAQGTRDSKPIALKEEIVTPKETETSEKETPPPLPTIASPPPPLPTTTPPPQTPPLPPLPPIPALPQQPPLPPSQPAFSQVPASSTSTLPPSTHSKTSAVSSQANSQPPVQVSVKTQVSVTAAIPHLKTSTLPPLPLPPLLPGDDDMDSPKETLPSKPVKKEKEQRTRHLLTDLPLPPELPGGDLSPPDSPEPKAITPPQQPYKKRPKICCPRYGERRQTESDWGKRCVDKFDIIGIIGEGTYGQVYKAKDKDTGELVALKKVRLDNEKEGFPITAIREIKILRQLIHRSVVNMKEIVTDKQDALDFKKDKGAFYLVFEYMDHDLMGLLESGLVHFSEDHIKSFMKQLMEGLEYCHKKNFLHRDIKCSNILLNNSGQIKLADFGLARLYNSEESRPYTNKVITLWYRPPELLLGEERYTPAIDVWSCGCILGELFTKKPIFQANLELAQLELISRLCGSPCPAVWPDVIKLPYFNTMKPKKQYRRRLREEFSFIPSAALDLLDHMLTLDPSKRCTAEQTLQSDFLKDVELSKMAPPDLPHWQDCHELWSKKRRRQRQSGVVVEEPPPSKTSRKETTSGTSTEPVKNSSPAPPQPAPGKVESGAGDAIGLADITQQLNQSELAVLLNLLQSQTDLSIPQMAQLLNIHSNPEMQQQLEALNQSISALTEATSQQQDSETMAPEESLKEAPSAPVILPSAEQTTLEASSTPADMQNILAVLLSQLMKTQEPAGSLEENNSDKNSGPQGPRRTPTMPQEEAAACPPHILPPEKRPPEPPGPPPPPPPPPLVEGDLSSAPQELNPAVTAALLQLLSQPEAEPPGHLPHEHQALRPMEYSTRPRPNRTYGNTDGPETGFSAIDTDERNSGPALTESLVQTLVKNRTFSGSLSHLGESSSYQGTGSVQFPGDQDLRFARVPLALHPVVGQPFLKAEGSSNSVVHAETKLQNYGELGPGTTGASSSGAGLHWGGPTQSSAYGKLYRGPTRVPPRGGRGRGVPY

[5] = target: Casein kinase I isoform gamma-1 (Homo sapiens, UniProt Q9HCP0)
[6] = target: T2, Serine/threonine-protein kinase Chk1 (Homo sapiens, UniProt O14757)
T2 sequence (O14757 whole entry): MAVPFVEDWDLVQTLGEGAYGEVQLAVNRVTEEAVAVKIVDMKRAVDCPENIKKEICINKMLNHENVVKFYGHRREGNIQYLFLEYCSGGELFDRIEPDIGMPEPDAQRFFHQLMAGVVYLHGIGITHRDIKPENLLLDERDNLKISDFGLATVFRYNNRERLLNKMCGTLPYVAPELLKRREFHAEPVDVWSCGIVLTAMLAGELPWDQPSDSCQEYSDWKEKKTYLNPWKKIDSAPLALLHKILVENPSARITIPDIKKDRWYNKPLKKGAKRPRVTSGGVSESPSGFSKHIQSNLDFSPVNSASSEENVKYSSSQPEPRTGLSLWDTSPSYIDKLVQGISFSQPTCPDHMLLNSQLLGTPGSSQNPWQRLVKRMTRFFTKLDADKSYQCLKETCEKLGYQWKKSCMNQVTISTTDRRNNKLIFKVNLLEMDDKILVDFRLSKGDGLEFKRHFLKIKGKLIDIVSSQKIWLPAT

[7] = target: RAC-gamma serine/threonine-protein kinase (Homo sapiens, UniProt Q9Y243)
[8] = target: Bone morphogenetic protein receptor type-1A (Homo sapiens, UniProt P36894)
LIM domain kinase 2 = LIM domain kinase 2 (Homo sapiens, UniProt P53671)
[9] = target: Cyclin-dependent kinase 13 (Homo sapiens, UniProt Q14004)
Chain of Cyclin-dependent kinase 13 (Q14004 whole entry): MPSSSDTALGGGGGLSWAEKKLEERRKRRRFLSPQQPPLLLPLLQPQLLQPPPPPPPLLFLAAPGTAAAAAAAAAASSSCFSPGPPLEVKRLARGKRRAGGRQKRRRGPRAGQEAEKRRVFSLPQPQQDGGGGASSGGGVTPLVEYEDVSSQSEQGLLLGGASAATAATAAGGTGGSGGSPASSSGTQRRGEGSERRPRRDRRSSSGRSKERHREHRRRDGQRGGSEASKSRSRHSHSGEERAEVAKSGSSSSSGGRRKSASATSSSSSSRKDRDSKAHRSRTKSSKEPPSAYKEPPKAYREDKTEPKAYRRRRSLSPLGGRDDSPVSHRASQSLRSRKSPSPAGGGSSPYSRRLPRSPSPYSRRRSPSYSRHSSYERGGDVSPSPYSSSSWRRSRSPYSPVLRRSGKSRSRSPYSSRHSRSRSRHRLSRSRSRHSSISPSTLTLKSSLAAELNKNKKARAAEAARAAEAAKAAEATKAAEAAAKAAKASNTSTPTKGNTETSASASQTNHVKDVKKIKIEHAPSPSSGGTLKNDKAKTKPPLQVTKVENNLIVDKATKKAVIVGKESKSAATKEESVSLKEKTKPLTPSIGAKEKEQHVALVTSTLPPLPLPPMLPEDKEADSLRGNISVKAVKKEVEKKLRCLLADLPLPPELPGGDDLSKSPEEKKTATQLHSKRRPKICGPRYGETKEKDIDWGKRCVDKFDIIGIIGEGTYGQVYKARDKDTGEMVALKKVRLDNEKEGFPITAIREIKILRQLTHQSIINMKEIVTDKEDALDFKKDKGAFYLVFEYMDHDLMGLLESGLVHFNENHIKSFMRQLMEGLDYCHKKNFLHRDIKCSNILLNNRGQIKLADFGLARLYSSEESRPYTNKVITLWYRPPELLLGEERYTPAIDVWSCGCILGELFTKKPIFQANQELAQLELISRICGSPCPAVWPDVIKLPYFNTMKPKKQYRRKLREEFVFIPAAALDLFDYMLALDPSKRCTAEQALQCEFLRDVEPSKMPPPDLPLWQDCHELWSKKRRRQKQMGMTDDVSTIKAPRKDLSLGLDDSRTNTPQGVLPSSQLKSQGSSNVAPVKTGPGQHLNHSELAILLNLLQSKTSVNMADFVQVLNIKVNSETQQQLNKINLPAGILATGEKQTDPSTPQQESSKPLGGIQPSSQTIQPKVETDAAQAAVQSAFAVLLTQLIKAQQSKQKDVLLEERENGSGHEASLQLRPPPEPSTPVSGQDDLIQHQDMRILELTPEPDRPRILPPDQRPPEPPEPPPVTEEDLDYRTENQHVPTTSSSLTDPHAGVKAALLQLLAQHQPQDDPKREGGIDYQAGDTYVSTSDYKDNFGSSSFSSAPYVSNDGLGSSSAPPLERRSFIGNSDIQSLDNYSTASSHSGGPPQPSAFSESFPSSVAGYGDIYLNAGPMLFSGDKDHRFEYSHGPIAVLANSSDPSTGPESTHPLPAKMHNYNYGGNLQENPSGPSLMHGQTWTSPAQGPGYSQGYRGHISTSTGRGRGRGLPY

[10] = target: Mitogen-activated protein kinase 3 (Homo sapiens, UniProt P27361)
[11] = target: GTP-binding nuclear protein Ran (Homo sapiens, UniProt P62826)
Ephrin type-A receptor 4 = Ephrin type-A receptor 4 (Homo sapiens, UniProt P54764)
[12] = target: Ribosomal protein S6 kinase alpha-4 (Homo sapiens, UniProt O75676)
Chain of Ribosomal protein S6 kinase alpha-4 (O75676 whole entry): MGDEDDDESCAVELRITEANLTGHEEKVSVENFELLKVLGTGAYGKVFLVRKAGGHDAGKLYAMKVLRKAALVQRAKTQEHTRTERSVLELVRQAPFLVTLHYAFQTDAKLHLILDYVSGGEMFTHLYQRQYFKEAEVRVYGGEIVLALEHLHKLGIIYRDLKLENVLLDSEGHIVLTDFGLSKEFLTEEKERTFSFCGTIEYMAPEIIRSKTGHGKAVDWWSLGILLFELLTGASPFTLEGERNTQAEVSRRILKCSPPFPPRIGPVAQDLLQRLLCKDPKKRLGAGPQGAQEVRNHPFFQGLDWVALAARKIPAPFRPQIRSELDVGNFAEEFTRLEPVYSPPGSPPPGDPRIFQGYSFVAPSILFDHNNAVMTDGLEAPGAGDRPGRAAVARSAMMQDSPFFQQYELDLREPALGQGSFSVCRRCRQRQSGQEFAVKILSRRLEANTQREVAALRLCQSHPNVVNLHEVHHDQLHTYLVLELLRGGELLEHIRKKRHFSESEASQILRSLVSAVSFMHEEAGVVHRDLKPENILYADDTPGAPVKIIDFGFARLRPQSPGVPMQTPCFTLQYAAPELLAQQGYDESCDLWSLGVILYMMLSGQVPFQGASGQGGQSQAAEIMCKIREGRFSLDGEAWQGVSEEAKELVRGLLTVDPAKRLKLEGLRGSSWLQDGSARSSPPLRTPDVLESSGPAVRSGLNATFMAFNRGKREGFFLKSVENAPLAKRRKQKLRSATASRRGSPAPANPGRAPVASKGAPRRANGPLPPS

[13] = target: Glycogen synthase kinase-3 alpha (Homo sapiens, UniProt P49840)
[14] = target: Tyrosine-protein kinase JAK1 (Homo sapiens, UniProt P23458)
Chain of Tyrosine-protein kinase JAK1 (P23458 whole entry): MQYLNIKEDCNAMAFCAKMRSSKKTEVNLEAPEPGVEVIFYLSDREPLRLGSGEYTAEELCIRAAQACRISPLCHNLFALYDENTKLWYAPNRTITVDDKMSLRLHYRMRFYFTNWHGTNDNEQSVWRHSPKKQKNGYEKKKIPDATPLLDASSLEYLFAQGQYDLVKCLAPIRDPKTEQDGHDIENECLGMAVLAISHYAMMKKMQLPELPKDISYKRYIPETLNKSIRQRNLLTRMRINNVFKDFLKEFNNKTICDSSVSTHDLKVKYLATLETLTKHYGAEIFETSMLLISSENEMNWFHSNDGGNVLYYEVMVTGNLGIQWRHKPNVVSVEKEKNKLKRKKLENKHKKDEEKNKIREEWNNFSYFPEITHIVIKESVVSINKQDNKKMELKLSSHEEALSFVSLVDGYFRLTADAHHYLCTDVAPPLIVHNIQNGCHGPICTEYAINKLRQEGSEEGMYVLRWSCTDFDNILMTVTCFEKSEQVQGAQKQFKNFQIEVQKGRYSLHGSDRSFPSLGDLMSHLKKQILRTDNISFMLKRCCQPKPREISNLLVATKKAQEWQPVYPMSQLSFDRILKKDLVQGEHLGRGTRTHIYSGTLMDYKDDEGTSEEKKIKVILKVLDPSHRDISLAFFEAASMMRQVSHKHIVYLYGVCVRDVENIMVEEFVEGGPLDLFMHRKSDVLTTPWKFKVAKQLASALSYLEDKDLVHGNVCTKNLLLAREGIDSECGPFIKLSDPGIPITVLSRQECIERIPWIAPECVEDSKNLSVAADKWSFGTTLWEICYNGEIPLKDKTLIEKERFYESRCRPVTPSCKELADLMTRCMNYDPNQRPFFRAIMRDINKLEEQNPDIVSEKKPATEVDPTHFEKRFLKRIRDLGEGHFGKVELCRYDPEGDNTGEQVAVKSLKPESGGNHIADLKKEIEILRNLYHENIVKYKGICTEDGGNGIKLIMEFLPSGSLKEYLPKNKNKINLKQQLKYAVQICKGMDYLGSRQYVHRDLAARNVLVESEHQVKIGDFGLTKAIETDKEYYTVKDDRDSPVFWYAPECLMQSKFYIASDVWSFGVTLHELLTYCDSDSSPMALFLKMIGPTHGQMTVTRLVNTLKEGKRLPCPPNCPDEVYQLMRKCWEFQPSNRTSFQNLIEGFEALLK

[15] = target: cAMP-dependent protein kinase type II-alpha regulatory subunit (Homo sapiens, UniProt P13861)
Also: in the data inactive means no Kd found up to 30 µM.

| SMILES | Kd [1] | Kd [2] | Kd [3] | Kd [4] | Kd [5] | Kd [6] | Kd [7] | Kd [8] | Kd (LIM domain kinase 2) | Kd [9] | Kd [10] | Kd [11] | Kd (Ephrin type-A receptor 4) | Kd [12] | Kd [13] | Kd [14] | Kd [15] |
| --- | --- | --- | --- | --- | --- | --- | --- | --- | --- | --- | --- | --- | --- | --- | --- | --- | --- |
| CNS(=O)(=O)Nc1nccc(Cc2c(C)c3ccc(Oc4ncccn4)cc3oc2=O)c1F [AVUTOMETINIB] | > 30 µM (inactive) | > 30 µM (inactive) | > 30 µM (inactive) | > 30 µM (inactive) | > 30 µM (inactive) | > 30 µM (inactive) | > 30 µM (inactive) | > 30 µM (inactive) | > 30 µM (inactive) | > 30 µM (inactive) | > 30 µM (inactive) | > 30 µM (inactive) | > 30 µM (inactive) | > 30 µM (inactive) | > 30 µM (inactive) | > 30 µM (inactive) | > 30 µM (inactive) |
| Cc1cc([C@@H](C)Nc2ccccc2C(=O)O)c2nc(N3CCOCC3)cc(=O)n2c1 [AZD-6482] | > 30 µM (inactive) | > 30 µM (inactive) | > 30 µM (inactive) | > 30 µM (inactive) | > 30 µM (inactive) | > 30 µM (inactive) | > 30 µM (inactive) | > 30 µM (inactive) | > 30 µM (inactive) | > 30 µM (inactive) | > 30 µM (inactive) | > 30 µM (inactive) | > 30 µM (inactive) | > 30 µM (inactive) | > 30 µM (inactive) | > 30 µM (inactive) | > 30 µM (inactive) |
| O=C(c1ccc(F)c(F)c1Nc1ccc(I)cc1F)N1CC(O)([C@@H]2CCCCN2)C1 [COBIMETINIB] | > 30 µM (inactive) | > 30 µM (inactive) | > 30 µM (inactive) | > 30 µM (inactive) | > 30 µM (inactive) | > 30 µM (inactive) | > 30 µM (inactive) | > 30 µM (inactive) | > 30 µM (inactive) | > 30 µM (inactive) | > 30 µM (inactive) | > 30 µM (inactive) | > 30 µM (inactive) | > 30 µM (inactive) | > 30 µM (inactive) | > 30 µM (inactive) | > 30 µM (inactive) |
| COC(=O)N[C@@H](C)CNc1nccc(-c2cn(C(C)C)nc2-c2cc(Cl)cc(NS(C)(=O)=O)c2F)n1 [ENCORAFENIB] | > 30 µM (inactive) | > 30 µM (inactive) | 1.87 µM (active) | > 30 µM (inactive) | > 30 µM (inactive) | > 30 µM (inactive) | > 30 µM (inactive) | > 30 µM (inactive) | 0.096 µM (active) | > 30 µM (inactive) | > 30 µM (inactive) | > 30 µM (inactive) | > 30 µM (inactive) | > 30 µM (inactive) | 5.26 µM (active) | > 30 µM (inactive) | > 30 µM (inactive) |
| CO[C@H]1C[C@@H]2CC[C@@H](C)[C@@](O)(O2)C(=O)C(=O)N2CCCC[C@H]2C(=O)O[C@H]([C@H](C)C[C@@H]2CC[C@@H](OCCO)[C@H](OC)C2)CC(=O)[C@H](C)/C=C(\C)[C@@H](O)[C@@H](OC)C(=O)[C@H](C)C[C@H](C)/C=C/C=C/C=C/1C [EVEROLIMUS] | > 30 µM (inactive) | > 30 µM (inactive) | > 30 µM (inactive) | > 30 µM (inactive) | > 30 µM (inactive) | > 30 µM (inactive) | > 30 µM (inactive) | > 30 µM (inactive) | > 30 µM (inactive) | > 30 µM (inactive) | > 30 µM (inactive) | > 30 µM (inactive) | > 30 µM (inactive) | > 30 µM (inactive) | > 30 µM (inactive) | > 30 µM (inactive) | > 30 µM (inactive) |

Second part, the compound after the results:

| Kd [1] | Kd [2] | Kd [3] | Kd [4] | Kd [5] | Kd [6] | Kd [7] | Kd [8] | Kd (LIM domain kinase 2) | Kd [9] | Kd [10] | Kd [11] | Kd (Ephrin type-A receptor 4) | Kd [12] | Kd [13] | Kd [14] | Kd [15] | SMILES |
| --- | --- | --- | --- | --- | --- | --- | --- | --- | --- | --- | --- | --- | --- | --- | --- | --- | --- |
| > 30 µM (inactive) | > 30 µM (inactive) | > 30 µM (inactive) | > 30 µM (inactive) | > 30 µM (inactive) | > 30 µM (inactive) | > 30 µM (inactive) | > 30 µM (inactive) | > 30 µM (inactive) | > 30 µM (inactive) | > 30 µM (inactive) | > 30 µM (inactive) | > 30 µM (inactive) | > 30 µM (inactive) | > 30 µM (inactive) | > 30 µM (inactive) | > 30 µM (inactive) | COc1cc(CCc2cc(NC(=O)c3ccc(N4C[C@@H](C)N[C@@H](C)C4)cc3)n[nH]2)cc(OC)c1 [AZD-4547] |
| > 30 µM (inactive) | > 30 µM (inactive) | > 30 µM (inactive) | > 30 µM (inactive) | > 30 µM (inactive) | > 30 µM (inactive) | > 30 µM (inactive) | > 30 µM (inactive) | > 30 µM (inactive) | > 30 µM (inactive) | > 30 µM (inactive) | > 30 µM (inactive) | > 30 µM (inactive) | > 30 µM (inactive) | > 30 µM (inactive) | > 30 µM (inactive) | > 30 µM (inactive) | COc1ccc(-c2ccc3c(N4CCOC[C@@H]4C)nc(N4CCOC[C@@H]4C)nc3n2)cc1CO [AZD-8055] |
| > 30 µM (inactive) | > 30 µM (inactive) | > 30 µM (inactive) | > 30 µM (inactive) | > 30 µM (inactive) | > 30 µM (inactive) | > 30 µM (inactive) | > 30 µM (inactive) | > 30 µM (inactive) | > 30 µM (inactive) | > 30 µM (inactive) | > 30 µM (inactive) | > 30 µM (inactive) | > 30 µM (inactive) | > 30 µM (inactive) | > 30 µM (inactive) | > 30 µM (inactive) | CNC(=O)c1ccc(-c2cnc3ncc(Cc4ccc5ncccc5c4)n3n2)cc1F [CAPMATINIB] |
| > 30 µM (inactive) | 0.858 µM (active) | > 30 µM (inactive) | > 30 µM (inactive) | > 30 µM (inactive) | > 30 µM (inactive) | > 30 µM (inactive) | > 30 µM (inactive) | > 30 µM (inactive) | > 30 µM (inactive) | > 30 µM (inactive) | > 30 µM (inactive) | > 30 µM (inactive) | > 30 µM (inactive) | > 30 µM (inactive) | > 30 µM (inactive) | > 30 µM (inactive) | COCCNCc1ccc(-c2cc3nccc(Oc4ccc(NC(=S)NC(=O)Cc5ccc(F)cc5)cc4F)c3s2)nc1 [GLESATINIB] |
